The test system of the test is T1, A. niger GH29 α-fucosidase (long version, pPFucA-L).
T1 construct: gene FucA; C-terminal His-tag kept; codon-optimized, secreted from Pichia pastoris
In words: pNP release, absorbance at […] nm. It counts as biochemical, Aspergillus niger. Conditions: 50 mM Na-acetate buffer assay, pH 3.6, 45 °C; 0.05-3 mM substrate; read-out: apparent Km.

A word on the Km: it is the substrate concentration at which the rate is half of its maximum. `C[C@@H]1O[C@@H](Oc2ccc([N+](=O)[O-])cc2)[C@@H](O)[C@H](O)[C@@H]1O` [pNP-fucose, 4-Nitrophenyl α-L-fucopyranoside]: the Michaelis-Menten constant (Km) was determined as 390 µM.
